In patent US20220213030A1, “AMINOGUANIDINE HYDRAZONES AS RETROMER STABILIZERS USEFUL FOR TREATING NEUROLOGICAL DISEASES” (OSPEDALE SAN RAFFAELE SRL, priority 2019, published 2022):
“Also recorded” adds a separate entry of the source.

Experiments:
[1] = system: LC3; experiment: pHfluorin-LC3 autophagy assay in Neuro2a clone 7B11; type: cell-based, mouse; settings: BafilomycinA1 200 nM, Torin-1 250 nM, 48 hours
Procedure: Besides increasing the functionality of lysosomes we hypothesised that compound 2a could also enhance the autophagy system. Therefore we used a pHfluorin-LC3-based assay to monitor the autophagy process in living Neuro2a cells. We have established in our laboratory a Neuro2a stable cell clone (7B11) that expresses the Microtubule-associated protein 1A/1B-light chain 3 (LC3) coupled with the ph-sensitive GFP/phlourin.
Neuro2a-7B11 cells were incubated with increasing concentrations of compound 2a (0.1-100 μM) as well as with the control molecules Bafilomycin Al and Torin-1. After 48 hours the GFP/phluorin signal, which is ph-sensitive, was measured by flow cytometry and fold changes calculated over untreated cells.
Autophagy assay were done using a stable Neuro2a cell clone expressing the pHluorin-mKate2-tagged human LC3 plasmids, Cell clones were generated according our published methods (Mazzocchi 2016). Upon transfection, cells were selected by 400 μg/mL G418 Disulfate Salt Solution (Sigma-Aldrich, St. Louis, Mo.) and further cloned by limiting dilution. […] Neuro2a 7B11 cells were treated with Compound 2a (0.1-100 μM) for 48 hours then MFI levels of the pHfluorin were measured in living cells by flow cytometry.

[2] = target: VPS35 (Mus musculus, UniProt Q9EQH3+Q9QZ88); experiment: VPS35 levels in Neuro2a cells by Western blot (screening of amino guanidine hydrazones); type: cell-based; set-up: endogenous in cells; host or cells: Neuro2a; settings: 48 hours; for Mean fold changes (VPS35 levels normalized on β-Actin, over vehicle-treated cells): 10 μM, independent cultures n=3; for VPS35 levels (in words): compounds at 10 μM
Procedure: To functionally screen the majority of synthetized amino guanidine hydrazones of the invention and determine their effects on the retromer complex, we incubated Neuro2a cells with each synthetized molecule at the concentration of 10 μM.
The test was executed in triplicate for each tested compound of the invention, cells lysates were established after 48 hours' incubation, and levels of VPS35 were normalized on the housekeeping gene β-Actin by Western blot. We observed a preliminary SAR among the compounds.
Fold changes are calculated over normalized VPS35 levels measured in vehicle-treated cells.
Neuro2a cells were seeded on 12 wells multiwell at the concentration of 100 000 cells/well. Cells were incubated with each compound, including the standard R55, at 10 μM for 48 hours. Cells were then washed in PBS 1× and lysed in a buffer containing Tris-HCl 10 mM pH8, EDTA 1 mM pH8, NaCl 100 mM, NP40 1%, with protease inhibitor cocktail (Sigma) 1×. Using a cell scraper total lysates were collected from each well, quantified with BCA (BCA protein assay, Thermofisher). Five μg were resolved on precast 10% acrylamide gel (Biorad). Proteins were transferred to a PVDF membrane (Millipore) and western blot were performed using the following antibodies: goat αVPS35 (1:1000), mouse α-βActin (1:10000). Detection of proteins was obtained by a chemiluminescence detection kit (PerkinElmer).

[3] = system: Neuro2a cells receiving H2O2; experiment: H2O2-induced cell death in Neuro2a cells; type: cell-based, mouse; settings: compound 10 μM, H2O2 200 μM, 48 hours
Procedure: We tested the specificity of compound 2a in an assay based on H2O2-induced chromosomal breaks that lead to DNA fragmentation and cell death. In principle such DNA lesions are the cause of cell death according to a process that is not influenced by the retromer. Thus, our leads should not be able to modulate rates cell survival in Neuro2a cells receiving H2O2. We incubated Neuro2a cells with 200 μM of H2O2 along with compounds 2a, 2c, 2d and 2g (10 μM).
Cell survival experiments were run on 96-well plates using Cell Counting Kit-8 (CCK8) survival kit (96992-Sigma) according the manufacturer's recommendations. Compound 2a cytotoxicity was tested on Neuro2a cells receiving increasing amount of compound 2a (1, 10, 50, 100, 200, 500 and 1000 μM) for 48 hours.

[4] = system: TNFα, IL-1(3, IL-6 and macrophage inflammatory proteins 1α and 1β); settings: cited from earlier work
[5] = system: G93A mice; settings: mouse, in vivo; cited from earlier work
[6] = system: TNFα; experiment: LPS-mediated TNFα release in Raw 264.7 cells (ELISA); type: cell-based, murine; settings: 10 μM for 1 hour, then LPS 100 ng/ml, 4 hours
Text: We observed that the molecular structure featuring compound 2a is reminiscent of the patented compound CNI-1493 (N,N′-bis [3,5 -bis [1(aminoiminomethyl) hydrazono]ethyl]phenyl]decanediamide tetrahydrochloride (CAS Reg. No. 164301-51-3)), (FIG. 16A). CNI-1493 inhibits macrophage activation in the animal model of Multiple Sclerosis producing a general amelioration of clinical and pathological outcomes of these mice (Martiney, Rajan et al. 1998). […] CNI-1493 suppresses the production of pro-inflammatory cytokines, belonging to the plethora of detrimental signals that accompany neurodegenerative processes in several disorders. […] We followed experimental procedures published by Bianchi and colleagues that describe the ability of CNI-1493 to blunt the production of this cytokine (Bianchi, Bloom et al. 1996). Cells were incubated with CNI-1493 (10 μM) or with compound 2a (10 μM) for 1 hour and then we added the LPS (100 ng/ml) to media. We next collected supernatants (4 hours after the LPS stimulation) form cells for the evaluation of TNFα levels.
Raw 264.7 cells (10^5/well) were treated with compound 2a, CNI-1493 or vehicle for 1 hour then we applied LPS (100 ng/ml) and supernatants were collected after 4 hours. […] Concentrations of TNFα were calculated according to a standard curve and expressed as nanograms per […]. […]

Compound	Mean fold changes (VPS35 levels normalized on β-Actin, over vehicle-treated cells) [2]	further results
CCC(=O)N1CCN(c2ccc(-n3c(=O)ccc4cnc5ccc(-c6cnc7ccccc7c6)cc5c43)cc2C(F)(F)F)CC1 [Torin 1, reference compound]		GFP/phluorin fluorescence, control molecules [1]: significantly dampened
Cc1ccc(S(=O)(=O)Nc2cc(C=NNC(=N)N)cc(C=NNC(=N)N)c2)cc1 [Compound 2o, 1-p-Tolylsulfonamido-3,5-bis-aminoguanidine phenyl hydrazone]	1.501	
CS(=O)(=O)Nc1cc(C=NNC(=N)N)cc(C=NNC(=N)N)c1 [Compound 2n, 1-Methylsulfonamido-3,5-bis-aminoguanidine phenyl hydrazone]	1.280	
N=C(NN=Cc1cccc(C=NNC(=N)N2CCCC2)c1)N1CCCC1 [Compound 2v, 1,3-bis-(N3-pyrrolidinyl) guanidine phenyl hydrazone]	1.978	
Cc1cc(C=NNC(=N)N)cc(C=NNC(=N)N)c1 [Compound 2g, 5-Methyl-1,3-bis-aminoguanidine phenyl hydrazone]	2.080	cell survival with H2O2 with or without compound [3]: did not result in any significant difference
CO/C1=C\C(C)=C\[C@@H](C)[C@@H](O)[C@@H](C)C/C(C)=C/C=C/[C@H](OC)[C@@H]([C@@H](C)[C@@H](O)[C@H](C)[C@@]2(O)C[C@@H](O)[C@H](C)[C@@H](C(C)C)O2)OC1=O [Bafilomycin A1, reference compound]		GFP/phluorin fluorescence, control molecules [1]: augmented fluorescence
C(=NNc1nc2ccccc2[nH]1)c1cccc(C=NNc2nc3ccccc3[nH]2)c1 [Compound 2z, 1,3-Bis-(N2N3-benzimidazolidinyl) guanidine phenyl hydrazone]	1.105	
N=C(N)NN=Cc1cc(C=NNC(=N)N)cc(C=NNC(=N)N)c1 [Compound 2r, 1-3,5-tris-amino guanidine phenyl hydrazone]	1.154	
CCCCOc1ccc(C=NNC(=N)N)cc1C=NNC(=N)N [Compound 2f, 1-(n-Butoxy)-2,4-bis-aminoguanidine phenyl hydrazone]	1.415	
Cc1ccc(C(=O)Nc2cc(C=NNC(=N)N)cc(C=NNC(=N)N)c2)cc1 [Compound 2m, 1-p-Tolylamido-3,5-bis-aminoguanidine phenyl hydrazone]	0.974	
CCCCNC(=N)NN=Cc1cc(C=NNC(=N)NCCCC)cc(NC(=O)c2ccc(C)cc2)c1 [Compound 2w, 1-p-Tolylamido-3,5-bis-(N3-n-butylamino) guanidine phenyl hydrazone]	0.625	
C/C(=N\NC(=N)N)c1cccc(/C(C)=N/NC(=N)N)c1 [Compound (VIII), 1′,3′-Dimethyl-1,3-bis-aminoguanidine phenyl hydrazone, reference compound]	0.600	
COc1cc(C=NNC(=N)N)cc(C=NNC(=N)N)c1 [Compound 2i, 1-Methoxy-3,5-bis-aminoguanidine phenyl hydrazone]	1.310	
COC(=O)c1cc(C=NNC(=N)N)cc(C=NNC(=N)N)c1 [Compound 2p, 1-Carbomethoxy-3,5-bis-amino guanidine phenyl hydrazone]	1.582	
C/C(=N\N=C(N)N)c1cc(NC(=O)CCCCCCCCC(=O)Nc2cc(/C(C)=N/N=C(N)N)cc(/C(C)=N/N=C(N)N)c2)cc(/C(C)=N/N=C(N)N)c1.Cl.Cl.Cl.Cl [CNI-1493, reference compound]		expression of pro-inflammatory cytokines [4]: inhibits the expression; onset of the disease and lifespan [5]: delayed the onset of the disease and increased the lifespan of mice; VPS35 levels (in words) [2]: did not increased; VPS35 levels (in words) ([2]; listed as CNI-1494): does not modulate VPS35; TNFα levels in supernatants [6]: significantly inhibited the expression of this cytokine; also recorded: significantly blunted TNFα expression
COc1ccc(C=NNC(=N)N)cc1C=NNC(=N)N [Compound 2e, 1-Methoxy-2,4-bis-amino guanidine phenyl hydrazone]	2.070	
N=C(N)NN=Cc1ccc(Br)c(C=NNC(=N)N)c1 [Compound 2c, 4-Bromo-1,3-bis-amino guanidine phenyl hydrazone]	1.617	cell survival with H2O2 with or without compound [3]: did not result in any significant difference
N=C(N)NN=Cc1cc(C=NNC(=N)N)cc(C(=O)N2CCN(c3ccccc3)CC2)c1 [Compound 2q, 5-(N4-phenylpiperazinyl)carboxamido-3,5-bis-amino guanidine phenyl hydrazone]	1.784	
CC(=O)Nc1cc(C=NNC(=N)N)cc(C=NNC(=N)N)c1 [Compound 2l, 1-Acetamido-3,5-bis-aminoguanidine phenyl hydrazone]	1.660	
N=C(N)NN=Cc1ccc(O)c(C=NNC(=N)N)c1 [Compound 2d, 1-Hydroxy-2,4-bis-aminoguanidine phenyl hydrazone]	2.477	cell survival with H2O2 with or without compound [3]: did not result in any significant difference
N=C(N)NN=Cc1cccc(C=NNC(=N)N)c1Br [Compound 2b, 2-Bromo-1,3-bis-aminoguanidine phenyl hydrazone]	1.300	
